Results: patent US20240209016A1, “FLUORESCENT NUCLEOSIDE PHOSPHATES” (STEALTH LABELS BIOTECH AB, priority 2021, published 2024)

Assays:
Huh-7 cells [1] = experiment: Dose response of cell uptake, fluorescence in cell lysate; format: cell-based, human; conditions: 24 h exposure
From the text: Quantification in Cell Lysate: For dose response experiments of the uptake of compounds 7 and 17, total cell lysates of the exposed cells were collected and measured on an Optima Blue Fluostar plate reader (BMG Labtech) with lysis buffer as background. 2CNqATP was excited using 355 nm (±20 nm) filter and emission was collected at through a bandpass filter centred at 460 nm (±12 nm). pATP was excited using 380 nm (±5 nm) filter and emission bandpass filter centred at 410 nm (±5 nm). Lysate buffer fluorescence was subtracted as background, and the fluorescence intensities of the triplicates were averaged. The fluorescence intensity was normalized to the highest added concentration of the compounds (10 μM).
Dose-response experiments were performed at one selected time point (24 h) in order to investigate the concentration dependency of cellular FBA-TP uptake. At the end of exposure, the cells were washed and lysed. The fluorescence of the compounds in the lysate, reflecting the internalized FBA, was measured using a plate reader. […] Compounds 7 and 17 show very different uptake characteristics. Cellular uptake of 2CNqATP increases dramatically with small increases in concentration and reaches a maximum, indicative of uptake saturation, already when 2.5 μM FBA-TP is added to the cells. By contrast, the increase of pATP emission between 0 and 2.5 μM is very small, only 4% of that of 2CNqATP, but when FBA-TP concentration is doubled it increases about 7 times. By adding 10 μM FBA-TP the fluorescence increases about 25 times, compared to 2.5 μM added compound.

[2] = DPBS, room temperature; cited from earlier work
Huh-7 cells [3] = experiment: Cellular incorporation into RNA (emission of extracted RNA); format: cell-based, human; conditions: 24 h exposure; for emission of RNA extracted from exposed cells (in-cellulo RNA labelling): excitation 350 nm (2CNqA) or 370 nm (pA)
Procedure: RNA Extraction: Cells were seeded in 12-well plates as described above. Treatment solutions were prepared by diluting compounds 7 and 17 to a concentration of 2.5 μM or 5 μM in CCM. Conditioned medium was removed from the cells and treatment solutions were added. For control cells CCM alone was added. Cells were incubated for 24 h at 37° C. and 5% CO2. For RNA extraction and purification, a QIAGEN RNeasy Mini Kit was used, following the manufacturer's protocol. Briefly, the cells were washed with DPBS, lysed, homogenized by 12 times passing it through a 20-gauge needle (0.9 mm outer diameter), and added to an equal volume of ethanol. The resulting solution was transferred to a RNeasy spin column and centrifuged. Then, binding buffer was added on top of the column, where after it was centrifuged again. The column-bound RNA was washed five times with washing buffer, with a centrifugation step between each addition. To elute the extracted RNA, 30 μL of the provided RNase-free water was applied to the column and centrifuged. This step was repeated twice to increase the yield of extracted RNA.
Three control samples were prepared to examine potential FBA-TP interferences with the extraction procedure, as well as non-covalent binding between the FBA-TP and RNA. 1) FBA-TP was added to the kit's lysate buffer to a concentration of 2.5 μM and treated in the same way starting from the homogenization step. 2) Unexposed cells were seeded and lysed as described above and FBA-TP was thereafter added directly to the lysate to make up a 2.5 μM final concentration. […] The concentration and purity of the RNA extracted from the unexposed cells were determined using a NanoDrop 2000 spectrophotometer (Thermo Scientific) and FBA-TP was added to reach a final concentration of 2.5 μM in the solution. […]
Absorption and Emission Readout of cellular RNA: Absorption spectra of extracted and purified RNA samples and controls were recorded on a Cary 4000 spectrometer (Agilent Technologies) between 200 nm and 600 nm. Emission spectra were measured on a SPEX Fluorolog 3 spectrofluorimeter (Jobin Yvon Horiba). […]

Huh-7 cells [4] = experiment: Cellular uptake and localisation by confocal fluorescence microscopy; format: cell-based, human; conditions: 2.5 μM
From the text: Confocal Laser Scanning Fluorescence Microscopy: Images were captured using a Nikon eclipse Ti microscope with a Nikon C2plus scanner, two parallel Gallium arsenide phosphide (GaAsP) detectors, and an Apo 60x Oil μS DIC N2 objective. To excite the fluorescent nucleoside triphosphates the 405 nm laser line was used, and the emission was collected between 407-607 nm. To optimize the signal while avoiding photobleaching of the compounds a laser power of 2% and a detector gain of 4% was applied. For live cell imaging, Huh-7 cells were seeded in a four-compartment dish (CELLview Dishes, Greiner Bio-One) with glass bottom as described above. During imaging the dish was placed in a stage top incubation chamber (OKO lab) maintaining 37° C. and 5% CO2.
Time-lapse Imaging: To image the uptake of compounds 7 and 17 over time, the time-lapse setup of the NIS software was used. […]
Results: To explore the cellular uptake of compounds 7 and 17, they were added to Huh-7 cells in CCM and the uptake was monitored as function of time using a confocal fluorescence microscope (FIG. 4). Control cells, exposed to CCM alone, were imaged using the same microscopy settings and recorded as reference to probe for cellular autofluorescence levels. […]

| Substance | added concentration at which uptake reaches maximum (saturation) (Huh-7 cells [1]) [µM] | ε260 [2] | emission maximum of RNA extracted from exposed cells (Huh-7 cells [3]; excitation at 350 nm) [nm] | emission of RNA extracted from exposed cells (in-cellulo RNA labelling) (Huh-7 cells [3]) | intracellular fluorescence following 20 h exposure (Huh-7 cells [4]) | fold increase of lysate fluorescence at 10 μM compared to 2.5 μM (Huh-7 cells [1]) | fold increase of lysate fluorescence when concentration is doubled from 2.5 μM (Huh-7 cells [1]) | increase of emission between 0 and 2.5 μM relative to that of 2CNqATP (Huh-7 cells [1]) [%] |
| --- | --- | --- | --- | --- | --- | --- | --- | --- |
| ((2R,3S,4R,5R)-5-(8-cyano-2,3,5,6-tetraazaaceanthrylen-2(6H)-yl)-3,4-dihydroxytetrahydrofuran-2-yl)methyl hydrogen triphosphate [2CNqATP] | 2.5 | 14600^26 M^−1 cm^−1 | 460 | significant emission peak | strong intracellular fluorescence | – | – | – |
| ((2R,3S,4R,5R)-5-(2,3,5,6-tetraazacyclopenta[de]tetracen-2(6H)-yl)-3,4-dihydroxytetrahydrofuran-2-yl)methyl hydrogen triphosphate [pATP] | – | 22300^27 M^−1 cm^−1 | – | on the same level as the controls | strong intracellular fluorescence | about 25 times | about 7 times | 4 |
